Experimental findings from PubChem BioAssay AID179 (DTP/NCI, 2004) are described below.

This assay relates to CEM cells HIV-1 protection, formazan growth assay. Nature of the assay: NCI AIDS Antiviral Assay. The note with it: for IC50: measured here: growth of uninfected CEM cells. The essentials:
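Steps: treat uninfected and HIV-1-infected human CEM cells at five drug levels; quantify growth by soluble formazan; retest any compound reaching 50% protection; classify actives from the retest.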

The structures appear in SMILES notation. The source made the active and inactive calls.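 Rule for the calls: active = compounds giving half or more protection of infected cells from virus-caused growth loss, again on retest; inactive = the rest.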

What is called EC50 is the concentration giving half of the maximal effect. A word on the IC50: it is the concentration that inhibits the measured activity by half. `CN(C)CCSc1cccc(-c2cc(-c3cccc(SCCN(C)C)c3)ncn2)c1`: the EC50 is greater than 21.9 µM and the IC50 was determined as 8.71 µM.

Regarding `CCN1c2ccccc2NC(=S)c2c1n[nH]c2-c1ccccc1`, the EC50 was greater than 200 µM and the IC50 turned out to be 53.7 µM.

Regarding `CC(C)(C)c1ccc(-c2nc3ccc(Cl)cc3c(=O)o2)cc1`, the EC50 was greater than 200 µM and the IC50 turned out to be 9.33 µM.

For the compound `COc1ccc(CC2NC(=O)C3CCCN3C2=O)cc1` (stereo not given), the EC50 was greater than 200 µM and the IC50 was greater than 200 µM.

On to `COC(=O)C1=NN2c3ccccc3C(=O)OCCC2(C)C1` (stereo not given), for which the EC50 was greater than 200 µM and the IC50 is greater than 200 µM.

As for `[O-]c1on[n+]2c1c(Nc1ccc(Cl)cc1)nc1ccccc12`, the EC50 was greater than 115 µM and the IC50 was greater than 115 µM.

As to `CC1CCSC(N(C(=O)N(C)c2ccccc2)c2ccccc2)=N1` (stereo not given), the EC50 is greater than 741 µM and the IC50 was determined as 724 µM.

As to `Cc1ccc(S(=O)(=O)c2scc(-c3ccccc3)c2C)cc1`, the EC50 is greater than 200 µM and the half-inhibitory concentration (IC50) worked out at 107 µM.

In the case of `COc1cc(O)c2c(=O)c(OC)c(-c3ccc4c(c3)OCO4)oc2c1`, the EC50 was greater than 200 µM and the 50% inhibitory concentration (IC50) is greater than 200 µM.

As for `COC(=O)C1(NC(=O)C(CC(=O)OCc2ccccc2)NC(=O)OCc2ccccc2)CCCCCCC1` (stereo not given), the EC50 is greater than 200 µM and the IC50 worked out at 11.7 µM.

Take `O=C1NN=C(c2ccc([N+](=O)[O-])cc2)C1n1nc(-c2ccccc2)c2ccccc2c1=O` (stereo not given): the EC50 is greater than 61.7 µM and the IC50 is greater than 61.7 µM.

In the case of `CC(=O)OC1CCC2(C)C(CCC3C2CCC2(C)C3CCC2C(C)(C)O)C1` (stereo not given), the EC50 is greater than 200 µM and the IC50 was found to be 174 µM.

On to `COC1C(OC(=O)/C=C/C=C/C=C/C=C/C(=O)O)CCC2(CO2)C1C1(C)OC1CC=C(C)C` (stereo not given), for which the EC50 was greater than 0.2 µM and the IC50 worked out at 0.178 µM.

For the compound `CCCNC(C#N)c1ccc(C(C#N)NCCC)cc1` (stereo not given), the EC50 was greater than 200 µM and the IC50 was determined as 38.9 µM.

Turning to `CN(C(=O)c1cccs1)C(=S)N1CCN(c2ccccc2)CC1`, the EC50 was greater than 55 µM and the IC50 came out at 30.9 µM.

Consider `Cn1cc2c(=O)n(OS(=O)(=O)c3ccccc3)c(=O)[nH]c2n1`, for which the EC50 was greater than 200 µM and the half-maximal inhibitory concentration (IC50) was greater than 200 µM.

For the compound `c1cnn(CN(Cn2cccn2)Cn2cccn2)c1`, the outcome was inactive.

Regarding `CC1(C)c2ccccc2-c2nc3ccccc3c3c2C1OC3=O` (stereo not given), the EC50 is greater than 832 µM and the IC50 was greater than 832 µM.

In the case of `C=CC12CCCCC1CC(C(=O)OC)=C(O)C2` (stereo not given), the result was inactive.

Turning to `O=C(CSCc1cc(S(=O)(=O)O)c2cccnc2c1O)Nc1ccc(/C=C/c2ccc(NC(=O)CSCc3cc(S(=O)(=O)O)c4cccnc4c3O)cc2S(=O)(=O)O)c(S(=O)(=O)O)c1`, the EC50 was greater than 200 µM and the IC50 is greater than 200 µM.

On to `CC(=O)C=O`, for which the outcome was inactive.

Turning to `CNC(=O)C(C)Oc1ccc(OCC2CCCCC2)cc1` (stereo not given), the EC50 was greater than 170 µM and the IC50 amounted to 30.2 µM.

For the compound `CC12CCCCC1=C(F)C(F)(F)S2` (stereo not given), the EC50 was greater than 200 µM and the IC50 came out at 115 µM.

Turning to `O=C1CN=C(c2ccccn2)c2cc(Cl)ccc2N1`, the EC50 was greater than 479 µM and the IC50 worked out at 72.4 µM.

`CCOP(=O)(OCC)C(Nc1cccc(F)c1)c1ccc(N(C)C)cc1` (stereo not given): the EC50 is greater than 200 µM and the IC50 worked out at 97.7 µM.

As for `CCCCC1(C)C=C/C(=C2/C(=O)O/C(=C\C(=O)O)C2=O)O1` (stereo not given), the EC50 is greater than 851 µM and the IC50 was greater than 851 µM.

`CCCCCCC(=O)C/C(=N/NC(N)=S)C(=O)NC1C2CC3CC(C2)CC1C3` (stereo not given): the EC50 is greater than 219 µM and the IC50 was greater than 219 µM.

As for `COC(=O)C1=C2c3ccccc3-c3ccccc3C2(O)C(C(=O)OC)C1=O` (stereo not given), the EC50 was greater than 1.45 µM and the IC50 was greater than 1.45 µM.

Take `COc1cc(C(=O)NCCS(=O)(=O)O)cc(OC)c1OC`: the EC50 is greater than 724 µM and the IC50 stood at 631 µM.

On to `O=[N+]([O-])c1c(F)c(F)c2c(c1F)N(CCCCCl)c1ccccc1S2`, for which the EC50 is greater than 200 µM and the IC50 came to 7.94 µM.

For the compound `COC1=C(N=[N+]=[N-])C(=O)c2ncccc2C1=O`, the result was inactive.

`N#Cc1c(Cl)c2cc([N+](=O)[O-])ccc2n2c1nc1ccccc12`: the EC50 was greater than 20 µM and the 50% inhibitory concentration (IC50) stood at 0.813 µM.

With `CC(C)(C)COC(=O)C(C)(C)NC(=O)C(CC(=O)OCc1ccccc1)NC(=O)OCc1ccccc1` (stereo not given), the EC50 is greater than 200 µM and the half-maximal inhibitory concentration (IC50) came out at 19.1 µM.

Turning to `S=c1[nH]c(=S)c2sc(=S)n(-c3ccccc3)c2[nH]1`, the EC50 was greater than 115 µM and the IC50 was determined as 56.2 µM.

With `O=C1NC(N2CCCC(CO)C2)=N/C1=C\c1ccc(Cl)cc1` (stereo not given), the EC50 was greater than 200 µM and the IC50 stood at 115 µM.

For `CC1=NN(c2ccccc2)C(=O)/C1=C\n1c(=S)[nH]c2ccccc21`, the EC50 is greater than 200 µM and the IC50 came to 87.1 µM.

With `O=C(c1ccco1)N(C(=S)N1CCN(c2ccccc2)CC1)c1ccccc1`, the EC50 is greater than 18.2 µM and the IC50 is greater than 18.2 µM.

As for `COC(=O)NC[C@@H]1OCc2cc3c(cc2[C@]12C=CCCC2)OCO3`, the EC50 is greater than 107 µM and the IC50 was determined as 2.63 µM.

As for `C1CN(SSN2CCSCC2)CCS1`, the EC50 was greater than 5.37 µM and the IC50 was greater than 5.37 µM.

For `O=C1Nc2ccccc2/C1=N/N1CCCCCC1`, the EC50 was greater than 200 µM and the IC50 turned out to be 97.7 µM.

Take `CC(C)c1cccc(C(C)C)c1NC1=CC(=O)C(=O)c2ccccc21`: the EC50 is greater than 30.2 µM and the IC50 is greater than 30.2 µM.

`COc1cc2ccc1OCc1cccc(n1)COc1ccc(cc1OC)C=NCCNCCNCCN=C2`: the EC50 is greater than 200 µM and the IC50 is 110 µM.

As for `c1ccc([P+](CCCCCCCC[P+](c2ccccc2)(c2ccccc2)c2ccccc2)(c2ccccc2)c2ccccc2)cc1`, the EC50 was greater than 100 µM and the IC50 was determined as 1.23 µM.

Turning to `O=CCCCCCOCc1ccccc1`, the EC50 is greater than 200 µM and the IC50 turned out to be 3.47 µM.

As for `CCCN(CCC)C(=S)Sc1nc(C)nc(N2CCN(c3nc(C)nc(SC(=S)N(CCC)CCC)c3[N+](=O)[O-])CC2)c1[N+](=O)[O-]`, the EC50 is greater than 200 µM and the IC50 turned out to be 2.04 µM.

`O=C1N[C@@H]2CCCC[C@@H]2C12CCCCC2`: the outcome was inactive.

For the compound `CN1C(=O)CN2C(Cl)(Cl)C2(c2ccccc2F)c2cc([N+](=O)[O-])ccc21` (stereo not given), the EC50 is greater than 200 µM and the IC50 was 141 µM.

Consider `O=C(O)[C@@H]1CSC(c2ccc(Cl)cc2)N1` (stereo not given in full), for which the EC50 is greater than 200 µM and the IC50 was greater than 200 µM.

In the case of `c1ccc(NC[Si]23OCCN(CCO2)CCO3)cc1`, the outcome was inactive.

Turning to `Cc1cc(Cl)ccc1NC(=O)C(=O)C(C(=O)c1ccccc1)C1OC(=O)c2ccccc21` (stereo not given), the EC50 was greater than 562 µM and the concentration for half-maximal inhibition (IC50) worked out at 302 µM.

For the compound `O=C(/C=C/c1ccsc1)c1ccsc1`, the EC50 was greater than 200 µM and the IC50 turned out to be 3.39 µM.

As to `O=C(CN1C(=O)c2ccccc2C1=O)OCC1CCCN2CCCCC12` (stereo not given), the EC50 was greater than 200 µM and the IC50 is greater than 200 µM.

Regarding `O=c1c2ncn(CCCl)c2n(-c2ccccc2)c(=S)n1-c1ccccc1`, the EC50 is greater than 200 µM and the concentration for half-maximal inhibition (IC50) is greater than 200 µM.
